Test results published in patent US20210214607A1, “LONG WAVELENGTH EMITTING CHEMILUMINESCENT PROBES” (NEMIS Technologies AG, priority 2018, published 2021).
One block for each molecule: values may come before it.

What was measured:
[1] = Chemiluminescent emission spectrum in PBS; assay type: physicochemical; conditions: compound 100 μM, PBS (pH 7.4) (10% DMSO)
Protocol: (§1) All reactions were carried out at room temperature unless stated otherwise. Chemicals and solvents were either A.R. grade or purified by standard techniques. Thin layer chromatography (TLC): silica gel plates Merck 60 F254: compounds were visualized by irradiation with UV light. Column chromatography (FC): silica gel Merck 60 (particle size 0.040-0.063 mm), eluent given in parentheses. Reverse-phase high pressure liquid chromatography (RP-HPLC): C18 5u, 250×4.6 mm, eluent given in parentheses. Preparative RP-HPLC: C18 5u, 250×21 mm, eluent given in parentheses. Fluorescence and chemiluminescence were recorded on Molecular Devices Spectramax i3x.

[2] = Chemiluminescence upon reaction with H2O2 in PBS; assay type: physicochemical; conditions: compound 100 μM, H2O2 1 mM, PBS (pH 7.4) (10% DMSO)
Protocol: as §1
The respective chemiluminescent kinetic profile is shown in FIG. 1 and the total light emission with [1 mM] or without the presence of H2O2 is shown in FIG. 2.
The chemiluminescent kinetic profile is shown in FIG. 5 and the total light emission with and without the presence of H2O2 is shown in FIG. 6.

intensity of emission [1]: visible by the naked eye
SMILES: COC1(c2ccc(/C=C/c3cc[n+]([O-])cc3)c(O)c2Cl)OOC12C1CC3CC(C1)CC2C3 (stereo not drawn) [Ia2]

emission maximum ([2]; 26° C.): 650 nm
SMILES: COC1(c2ccc(/C=C/c3cccc[n+]3CCCCCC(=O)O)c(OCc3ccc(B4OC(C)(C)C(C)(C)O4)cc3)c2Cl)OOC12C1CC3CC(C1)CC2C3 (stereo not drawn) [Ia3]

emission maximum ([2]; 37° C.): 660 nm
SMILES: COC1(c2ccc(/C=C/c3cc[n+](CCCCCC(=O)O)cc3)c(OCc3ccc(B4OC(C)(C)C(C)(C)O4)cc3)c2Cl)OOC12C1CC3CC(C1)CC2C3 (stereo not drawn) [Ia1]
